2 molecules from ChEMBL document CHEMBL3046848, “Synthesis and biological evaluation of novel series of thieno[2,3-d]pyrimidine derivatives as anticancer and antimicrobial agents” (2013) can be followed below.

≈ marks a conversion by molar mass, not a printed value.

Holding throughout (format): functional
One assay concerns IGROV-1. Put plainly: Growth inhibition of Homo sapiens (human) IGROV1 cells at 10 uM after 48 hr by SRB assay. Particulars: IGROV-1, 48 h, read-out: GI. A general note: In SRB staining, fixed cells bind dye roughly in proportion to their protein.
Assay [1] deals with Pseudomonas aeruginosa. The experiment in a line: Antimicrobial activity against Pseudomonas aeruginosa ATCC9027 assessed as diameter of growth inhibition zone at 1 mg/ml after 24 hr by agar cup diffusion method. Particulars: ATCC9027, 24 h, read-out: IZ.
In another assay the test system is Escherichia coli. Put plainly: Antimicrobial activity against Escherichia coli ATCC8739 assessed as diameter of growth inhibition zone at 1 mg/ml after 24 hr by agar cup diffusion method. Particulars: ATCC8739, 24 h, read-out: IZ.
The subject of another assay is Staphylococcus aureus. Put plainly: Antimicrobial activity against Staphylococcus aureus ATCC6538P assessed as diameter of growth inhibition zone at 1 mg/ml after 24 hr by agar cup diffusion method. Particulars: read-out: IZ.
The next assay has as its system Candida albicans. The experiment in a line: Antimicrobial activity against Candida albicans ATCC2091 assessed as diameter of growth inhibition zone at 1 mg/ml after 48 hr by agar cup diffusion method. The note with it: ATCC2091, 48 h, read-out: IZ.
Another assay has as its system SK-MEL-2. The experiment in a line: Growth inhibition of Homo sapiens (human) SK-MEL-2 cells at 10 uM after 48 hr by SRB assay. Particulars: SK-MEL-2, 48 h, read-out: GI.
The test system of another assay is TK-10. The experiment in a line: Growth inhibition of Homo sapiens (human) TK10 cells at 10 uM after 48 hr by SRB assay. Particulars: TK-10, 48 h, read-out: GI.
The subject of assay [2] is Pseudomonas aeruginosa. Put plainly: Antimicrobial activity against Pseudomonas aeruginosa ATCC9027 assessed as growth inhibition after 48 hr by two-fold serial dilution method. The note with it: ATCC9027, 48 h.
In another assay the test system is SF-295. The experiment in a line: Growth inhibition of Homo sapiens (human) SF295 cells at 10 uM after 48 hr by SRB assay. Particulars: SF-295, 48 h, read-out: GI.

For `Cc1c(C(N)=O)sc2nc(SCC(=O)Nc3ccc(Cl)cc3)n(-c3ccccc3)c(=O)c12`, the results for the inhibition of growth at 10 µM with IGROV-1, with SK-MEL-2 and in the assay on TK-10 were 79.4%, 116% and 47.2%, respectively. Also, the zone of inhibition at 1000 µg/mL is 12 mm in the assay with Pseudomonas aeruginosa [1], 15 mm with Escherichia coli, 10 mm in the assay with Staphylococcus aureus and 15 mm with Candida albicans.
For orientation: MIC means the least concentration at which growth counts as inhibited. Turning to `Cc1c(C(N)=O)sc2ncn(CCO)c(=O)c12`, the zone of inhibition at 1000 µg/mL in the assay on Pseudomonas aeruginosa [1] stood at 17 mm; with Escherichia coli it was 15 mm; in the assay with Staphylococcus aureus it was 10 mm; in the assay with Candida albicans, 15 mm. In addition, the minimum inhibitory concentration (MIC) in the assay on Pseudomonas aeruginosa [2] amounted to 125 µg/mL (≈ 494 µM). Also, the inhibition of growth at 10 µM in the assay on SF-295 came out at 43.8%; with TK-10, 97.1%.
